# In patent US20250249056A1, “CANCER THERAPIES COMPRISING A NUCLEAR EXPORT INHIBITOR AND AN ONCOLYTIC VIRUS” (priority 2022, published 2025):
# Tested on: Colo205 cells
# Format: cell-based, human
compound,measurement,setting,value
O=C(/C=C\n1cnc(-c2cc(C(F)(F)F)cc(C(F)(F)F)c2)n1)NNc1cnccn1 [selinexor],"Differential protein expression, SCAF1",,100
same,"Differential protein expression, A2ML1","A8K2U0, selinexor-treated cytoplasm vs control cytoplasm",3.444
same,"Differential protein expression, PHF20L1","A8MW92, selinexor-treated cytoplasm vs control cytoplasm",0.01
same,"Differential protein expression, KPNA7","A9QM74, selinexor-treated cytoplasm vs control cytoplasm",0.149
same,"Differential protein expression, accession B2CWB5","B2CWB5 (gene symbol not given), selinexor-treated cytoplasm vs control cytoplasm",0.01
same,"Differential protein expression, m033R","B2CWE0, selinexor-treated cytoplasm vs control cytoplasm",0.01
same,"Differential protein expression, m047R","B2CWF4, selinexor-treated cytoplasm vs control cytoplasm",0.01
same,"Differential protein expression, m060R","B2CWG7, selinexor-treated cytoplasm vs control cytoplasm",0.01
same,"Differential protein expression, accession B2CWJ3","B2CWJ3 (gene symbol not given), selinexor-treated cytoplasm vs control cytoplasm",0.01
same,"Differential protein expression, accession B2CWL4","B2CWL4 (gene symbol not given), selinexor-treated cytoplasm vs control cytoplasm",100
same,"Differential protein expression, m149R","B2CWQ5, selinexor-treated cytoplasm vs control cytoplasm",100
same,"Differential protein expression, HNRNPCL2","B2RXH8, selinexor-treated cytoplasm vs control cytoplasm",2.92
same,"Differential protein expression, HNRNPCL3","B7ZW38, selinexor-treated cytoplasm vs control cytoplasm",2.963
same,"Differential protein expression, m107L","E2CZJ6, selinexor-treated cytoplasm vs control cytoplasm",100
same,"Differential protein expression, m126R","E2CZL5, selinexor-treated cytoplasm vs control cytoplasm",0.193
same,"Differential protein expression, m001R","E2CZP2, selinexor-treated cytoplasm vs control cytoplasm",3.839
same,"Differential protein expression, m009L","E2CZQ3, selinexor-treated cytoplasm vs control cytoplasm",0.01
same,"Differential protein expression, m055R","E2CZV0, selinexor-treated cytoplasm vs control cytoplasm",2.342
same,"Differential protein expression, m072L","E2CZW7, selinexor-treated cytoplasm vs control cytoplasm",3.124
same,"Differential protein expression, m086L","E2CZY1, selinexor-treated cytoplasm vs control cytoplasm",0.01
same,"Differential protein expression, AGRN","O00468, selinexor-treated cytoplasm vs control cytoplasm",0.494
same,"Differential protein expression, SDCBP","O00560, selinexor-treated cytoplasm vs control cytoplasm",2.743
same,"Differential protein expression, MPHOSPH10","O00566, selinexor-treated cytoplasm vs control cytoplasm",2.761
same,"Differential protein expression, UBE2C","O00762, selinexor-treated cytoplasm vs control cytoplasm",0.459
same,"Differential protein expression, SCD","O00767, selinexor-treated cytoplasm vs control cytoplasm",0.297
same,"Differential protein expression, M-T1","O10625, selinexor-treated cytoplasm vs control cytoplasm",3.839
same,"Differential protein expression, CLDN4","O14493, selinexor-treated cytoplasm vs control cytoplasm",10.645
same,"Differential protein expression, UTY","O14607, selinexor-treated cytoplasm vs control cytoplasm",0.01
same,"Differential protein expression, MEIS2","O14770, selinexor-treated cytoplasm vs control cytoplasm",0.01
same,"Differential protein expression, BACH1","O14867, selinexor-treated cytoplasm vs control cytoplasm",100
same,"Differential protein expression, IRF6","O14896, selinexor-treated cytoplasm vs control cytoplasm",2.466
same,"Differential protein expression, MYL12B","O14950, selinexor-treated cytoplasm vs control cytoplasm",2.249
same,"Differential protein expression, XPO1","O14980, selinexor-treated cytoplasm vs control cytoplasm",0.335
same,"Differential protein expression, MAPK13","O15264, selinexor-treated cytoplasm vs control cytoplasm",2.006
same,"Differential protein expression, DDX3Y","O15523, selinexor-treated cytoplasm vs control cytoplasm",100
same,"Differential protein expression, MAFG","O15525, selinexor-treated cytoplasm vs control cytoplasm",0.453
same,"Differential protein expression, CLDN3","O15551, selinexor-treated cytoplasm vs control cytoplasm",2.357
same,"Differential protein expression, SPINT1","O43278, selinexor-treated cytoplasm vs control cytoplasm",4.255
same,"Differential protein expression, KDELR3","O43731, selinexor-treated cytoplasm vs control cytoplasm",0.379
same,"Differential protein expression, ZBTB14","O43829, selinexor-treated cytoplasm vs control cytoplasm",0.01
same,"Differential protein expression, HNRNPCL1","O60812, selinexor-treated cytoplasm vs control cytoplasm",2.92
same,"Differential protein expression, NOS1AP","O75052, selinexor-treated cytoplasm vs control cytoplasm",0.01
same,"Differential protein expression, SIN3B","O75182, selinexor-treated cytoplasm vs control cytoplasm",0.01
same,"Differential protein expression, ZNF217","O75362, selinexor-treated cytoplasm vs control cytoplasm",2.042
same,"Differential protein expression, TAF5L","O75529, selinexor-treated cytoplasm vs control cytoplasm",100
same,"Differential protein expression, BANF1","O75531, selinexor-treated cytoplasm vs control cytoplasm",2.438
same,"Differential protein expression, PIAS2","O75928, selinexor-treated cytoplasm vs control cytoplasm",100
same,"Differential protein expression, ZFAND5","O76080, selinexor-treated cytoplasm vs control cytoplasm",0.48
same,"Differential protein expression, SUPT7L","O94864, selinexor-treated cytoplasm vs control cytoplasm",0.01
same,"Differential protein expression, HEXIM1","O94992, selinexor-treated cytoplasm vs control cytoplasm",3.29
same,"Differential protein expression, SVIL","O95425, selinexor-treated cytoplasm vs control cytoplasm",0.01
same,"Differential protein expression, NUDT3","O95989, selinexor-treated cytoplasm vs control cytoplasm",3.124
same,"Differential protein expression, DHFR","P00374, selinexor-treated cytoplasm vs control cytoplasm",0.419
same,"Differential protein expression, OAS1","P00973, selinexor-treated cytoplasm vs control cytoplasm",2.17
same,"Differential protein expression, TIMP1","P01033, selinexor-treated cytoplasm vs control cytoplasm",2.021
same,"Differential protein expression, CSTA","P01040, selinexor-treated cytoplasm vs control cytoplasm",3.956
same,"Differential protein expression, FOS","P01100, selinexor-treated cytoplasm vs control cytoplasm",0.01
same,"Differential protein expression, KRT14","P02533, selinexor-treated cytoplasm vs control cytoplasm",3.261
same,"Differential protein expression, KRT6A","P02538, selinexor-treated cytoplasm vs control cytoplasm",3.082
same,"Differential protein expression, APOD","P05090, selinexor-treated cytoplasm vs control cytoplasm",7.079
same,"Differential protein expression, S100A8","P05109, selinexor-treated cytoplasm vs control cytoplasm",3.524
same,"Differential protein expression, CENPB","P07199, selinexor-treated cytoplasm vs control cytoplasm",0.01
same,"Differential protein expression, PRSS2","P07478, selinexor-treated cytoplasm vs control cytoplasm",0.479
same,"Differential protein expression, HNRNPC","P07910, selinexor-treated cytoplasm vs control cytoplasm",2.948
same,"Differential protein expression, ASNS","P08243, selinexor-treated cytoplasm vs control cytoplasm",0.353
same,"Differential protein expression, NFIC","P08651, selinexor-treated cytoplasm vs control cytoplasm",0.01
same,"Differential protein expression, KRT16","P08779, selinexor-treated cytoplasm vs control cytoplasm",4.248
same,"Differential protein expression, TOP2A","P11388, selinexor-treated cytoplasm vs control cytoplasm",0.458
same,"Differential protein expression, CDK4","P11802, selinexor-treated cytoplasm vs control cytoplasm",0.445
same,"Differential protein expression, NEFH","P12036, selinexor-treated cytoplasm vs control cytoplasm",2.248
same,"Differential protein expression, CDH1","P12830, selinexor-treated cytoplasm vs control cytoplasm",4.064
same,"Differential protein expression, KRT10","P13645, selinexor-treated cytoplasm vs control cytoplasm",2.123
same,"Differential protein expression, KRT5","P13647, selinexor-treated cytoplasm vs control cytoplasm",2.042
same,"Differential protein expression, CD59","P13987, selinexor-treated cytoplasm vs control cytoplasm",2.269
same,"Differential protein expression, PLA2G2A","P14555, selinexor-treated cytoplasm vs control cytoplasm",2.128
same,"Differential protein expression, CCNB1","P14635, selinexor-treated cytoplasm vs control cytoplasm",0.377
same,"Differential protein expression, MYL6B","P14649, selinexor-treated cytoplasm vs control cytoplasm",2.392
same,"Differential protein expression, HNRNPL","P14866, selinexor-treated cytoplasm vs control cytoplasm",2.044
same,"Differential protein expression, GLUL","P15104, selinexor-treated cytoplasm vs control cytoplasm",2.48
same,"Differential protein expression, ATF2","P15336, selinexor-treated cytoplasm vs control cytoplasm",0.01
same,"Differential protein expression, FOSL2","P15408, selinexor-treated cytoplasm vs control cytoplasm",100
same,"Differential protein expression, H1-3","P16402, selinexor-treated cytoplasm vs control cytoplasm",14.354
same,"Differential protein expression, ZKSCAN1","P17029, selinexor-treated cytoplasm vs control cytoplasm",100
same,"Differential protein expression, SDC1","P18827, selinexor-treated cytoplasm vs control cytoplasm",2.678
same,"Differential protein expression, ATF1","P18846, selinexor-treated cytoplasm vs control cytoplasm",100
same,"Differential protein expression, MYL12A","P19105, selinexor-treated cytoplasm vs control cytoplasm",2.269
same,"Differential protein expression, IMPDH1","P20839, selinexor-treated cytoplasm vs control cytoplasm",0.485
same,"Differential protein expression, TGM1","P22735, selinexor-treated cytoplasm vs control cytoplasm",2.137
same,"Differential protein expression, MYL9","P24844, selinexor-treated cytoplasm vs control cytoplasm",2.253
same,"Differential protein expression, DNMT1","P26358, selinexor-treated cytoplasm vs control cytoplasm",0.424
same,"Differential protein expression, RBL1","P28749, selinexor-treated cytoplasm vs control cytoplasm",0.395
same,"Differential protein expression, GRN","P28799, selinexor-treated cytoplasm vs control cytoplasm",2.493
same,"Differential protein expression, KDM5A","P29375, selinexor-treated cytoplasm vs control cytoplasm",0.01
same,"Differential protein expression, SERPINB3","P29508, selinexor-treated cytoplasm vs control cytoplasm",34.048
same,"Differential protein expression, SLC7A1","P30825, selinexor-treated cytoplasm vs control cytoplasm",0.272
same,"Differential protein expression, S100A7","P31151, selinexor-treated cytoplasm vs control cytoplasm",2.547
same,"Differential protein expression, RRM2","P31350, selinexor-treated cytoplasm vs control cytoplasm",0.284
same,"Differential protein expression, CASP14","P31944, selinexor-treated cytoplasm vs control cytoplasm",2.655
same,"Differential protein expression, CDA","P32320, selinexor-treated cytoplasm vs control cytoplasm",2.571
same,"Differential protein expression, GBP1","P32455, selinexor-treated cytoplasm vs control cytoplasm",0.01
same,"Differential protein expression, KRT9","P35527, selinexor-treated cytoplasm vs control cytoplasm",0.486
same,"Differential protein expression, MYH9","P35579, selinexor-treated cytoplasm vs control cytoplasm",2.051
same,"Differential protein expression, MYH10","P35580, selinexor-treated cytoplasm vs control cytoplasm",2.213
same,"Differential protein expression, HSD17B2","P37059, selinexor-treated cytoplasm vs control cytoplasm",2.045
same,"Differential protein expression, FDFT1","P37268, selinexor-treated cytoplasm vs control cytoplasm",0.453
same,"Differential protein expression, PBX3","P40426, selinexor-treated cytoplasm vs control cytoplasm",0.01
same,"Differential protein expression, SLC1A4","P43007, selinexor-treated cytoplasm vs control cytoplasm",0.439
same,"Differential protein expression, MATR3","P43243, selinexor-treated cytoplasm vs control cytoplasm",5.731
same,"Differential protein expression, RFX3","P48380, selinexor-treated cytoplasm vs control cytoplasm",0.152
same,"Differential protein expression, SERPINB4","P48594, selinexor-treated cytoplasm vs control cytoplasm",5.894
same,"Differential protein expression, HNRNPA3","P51991, selinexor-treated cytoplasm vs control cytoplasm",2.069
same,"Differential protein expression, ZNF131","P52739, selinexor-treated cytoplasm vs control cytoplasm",0.01
same,"Differential protein expression, RBM5","P52756, selinexor-treated cytoplasm vs control cytoplasm",0.01
same,"Differential protein expression, PLK1","P53350, selinexor-treated cytoplasm vs control cytoplasm",0.01
same,"Differential protein expression, CEBPG","P53567, selinexor-treated cytoplasm vs control cytoplasm",0.01
same,"Differential protein expression, MAPK12","P53778, selinexor-treated cytoplasm vs control cytoplasm",2.006
same,"Differential protein expression, POLG","P54098, selinexor-treated cytoplasm vs control cytoplasm",0.27
same,"Differential protein expression, EPHB3","P54753, selinexor-treated cytoplasm vs control cytoplasm",0.496
same,"Differential protein expression, PKNOX1","P55347, selinexor-treated cytoplasm vs control cytoplasm",0.01
same,"Differential protein expression, MAZ","P56270, selinexor-treated cytoplasm vs control cytoplasm",0.01
same,"Differential protein expression, HDAC4","P56524, selinexor-treated cytoplasm vs control cytoplasm",0.458
same,"Differential protein expression, PCBP3","P57721, selinexor-treated cytoplasm vs control cytoplasm",2.306
same,"Differential protein expression, CKS1B","P61024, selinexor-treated cytoplasm vs control cytoplasm",0.422
same,"Differential protein expression, POLR2F","P61218, selinexor-treated cytoplasm vs control cytoplasm",2.135
same,"Differential protein expression, SNRPE","P62304, selinexor-treated cytoplasm vs control cytoplasm",2.173
same,"Differential protein expression, SNRPF","P62306, selinexor-treated cytoplasm vs control cytoplasm",2.172
same,"Differential protein expression, SNRPD1","P62314, selinexor-treated cytoplasm vs control cytoplasm",2.056
same,"Differential protein expression, SNRPD2","P62316, selinexor-treated cytoplasm vs control cytoplasm",2.406
same,"Differential protein expression, RHOB","P62745, selinexor-treated cytoplasm vs control cytoplasm",0.01
same,"Differential protein expression, ARF1","P84077, selinexor-treated cytoplasm vs control cytoplasm",2.133
same,"Differential protein expression, H3-3A; H3-3B","P84243, selinexor-treated cytoplasm vs control cytoplasm",3.295
same,"Differential protein expression, HSPG2","P98160, selinexor-treated cytoplasm vs control cytoplasm",0.441
same,"Differential protein expression, KRT24","Q2M2I5, selinexor-treated cytoplasm vs control cytoplasm",2.716
same,"Differential protein expression, SMU1","Q2TAY7, selinexor-treated cytoplasm vs control cytoplasm",2.21
same,"Differential protein expression, KRT71","Q3SY84, selinexor-treated cytoplasm vs control cytoplasm",4.935
same,"Differential protein expression, COA6","Q5JTJ3, selinexor-treated cytoplasm vs control cytoplasm",2.872
